Values of other authors in US20100330150A1, “Orally Disintegrating Tablet Compositions Comprising Combinations of High and Low-Dose Drugs” (priority 2009, published 2010).

What was measured:
serum protein = conditions: after normal therapeutic dosages

CC(=O)Nc1ccc(O)cc1 [acetaminophen]
Plasma half-life (normal, healthy patients): 1 to 2.5 h
Time after which only traces of the drug are detectable (oral administration): about 8 hours
Time at which peak plasma concentrations are attained (oral administration): 30 to 60 min
Binding to serum protein (serum protein): about 25%
